# Experimental data taken from article PMC12514841 (Protein Science : A Publication of the Protein Society, 2025).
# Where “and” joins values, the source holds several entries; their conditions need not be identical. Equal entries are not always repeated.
# Columns and labels:
# Type in all cases: biochemical
# [1] = biological target: BlaC I105Y (Mycobacterium tuberculosis, UniProt P9WKD3, I117Y); settings: pH 6.4
# [2] = biological target: BlaC S130G (Mycobacterium tuberculosis, UniProt P9WKD3, S142G)
# [3] = biological target: T1, BlaC I105Y-S130G (Mycobacterium tuberculosis, UniProt P9WKD3, I117Y/S142G); settings: pH 6.4
# [4] = biological target: BlaC I105G (Mycobacterium tuberculosis, UniProt P9WKD3, I117G); settings: pH 6.4
# [5] = biological target: BlaC G132N (Mycobacterium tuberculosis, UniProt P9WKD3, G132N/G144N)
# [6] = biological target: T2, BlaC I105G-G132N (Mycobacterium tuberculosis, UniProt P9WKD3, G144N/I117G)
# [7] = biological target: T1, BlaC I105Y-S130G
# [8] = biological target: T2, BlaC I105G-G132N; remark: listed apart in the source
smiles,measurement,setting,value
"CC1(C)S[C@@H]2[C@H](NC(=O)C(C(=O)O)c3ccccc3)C(=O)N2[C@H]1C(=O)O (stereo partly shown) [Carbenicillin, carbenicillin]",K M ^app,[1],1.5 ± 1 µM
same,k cat,[1],2.0 ± 0.1 s⁻¹
same,k cat /K M ^app relative to the wild-type,[1],14.9 ± 0.8
same,k cat/K M ^app,[1],1.34 ± 0.07 µM⁻¹ s⁻¹
same,K M ^app,[2]; pH 6.4,72 ± 5 µM
same,k cat,[2]; pH 6.4,1.2 ± 0.1 s⁻¹
same,k cat /K M ^app relative to the wild-type,[2]; pH 6.4,0.22 ± 0.01
same,k cat/K M ^app,[2]; pH 6.4,0.020 ± 0.001 µM⁻¹ s⁻¹
same,K M ^app,[3],21 ± 3 µM
same,k cat,[3],2.7 ± 0.2 s⁻¹
same,k cat /K M ^app relative to the wild-type,[3],1.4 ± 0.2
same,k cat/K M ^app,[3],0.13 ± 0.02 µM⁻¹ s⁻¹
same,K M ^app,[4],1.5 ± 0.4 µM
same,k cat,[4],0.12 ± 0.01 s⁻¹
same,k cat /K M ^app relative to the wild-type,[4],0.90 ± 0.04
same,k cat/K M ^app,[4],0.081 ± 0.004 µM⁻¹ s⁻¹
same,times decrease in catalytic efficiency (k cat/K M ^app) versus the wild-type,[5],13 times
same,K M ^app,[5]; pH 6.4,224 ± 11 µM
same,k cat,[5]; pH 6.4,1.62 ± 0.02 s⁻¹
same,k cat /K M ^app relative to the wild-type,[5]; pH 6.4,0.080 ± 0.004
same,k cat/K M ^app,[5]; pH 6.4,0.0072 ± 0.0004 µM⁻¹ s⁻¹
same,K M ^app,[6]; pH 6.4,7.0 ± 0.9 µM
same,k cat,[6]; pH 6.4,0.96 ± 0.07 s⁻¹
same,k cat /K M ^app relative to the wild-type,[6]; pH 6.4,1.6 ± 0.2
same,k cat/K M ^app,[6]; pH 6.4,0.14 ± 0.02 µM⁻¹ s⁻¹
"CC1(C)S[C@@H]2[C@H](NC(=O)[C@H](N)c3ccccc3)C(=O)N2[C@H]1C(=O)O [Ampicillin, ampicillin]",KMapp,[1],89 ± 7 µM
same,k cat,[1],48 ± 1 and 48 ± 1 s^−1
same,k cat /K M ^app relative to the wild-type,[1],4.43 ± 0.1
same,k cat/K M ^app,[1],0.98 ± 0.02 and 0.98 ± 0.02 μM^−1 s^−1
same,kcat,[1],28 ± 1 s⁻¹
same,kcat/KMapp,[1],320000 ± 30000 M⁻¹ s⁻¹
same,kcat/KMapp relative to the wild-type,[1],1.52 ± 0.14
same,fold decrease in k cat/K M ^app compared to the wild-type,[2],approximately 30 fold
same,fold higher activity in MES than in phosphate buffer,[2],roughly 5 fold
same,k cat fold lower than for wild-type BlaC,[2],8 fold
same,k cat times higher than for wild-type BlaC,[2],2.5 times
same,KMapp,[2]; pH 6.4,588 µM
same,k cat,[2]; pH 6.4,1.7 ± 1 and 1.7 ± 1 s^−1
same,k cat /K M ^app relative to the wild-type,[2]; pH 6.4,0.03 ± 0.01
same,k cat/K M ^app,[2]; pH 6.4,0.007 ± 0.001 and 0.007 ± 0.001 μM^−1 s^−1
same,kcat,[2]; pH 6.4,21 ± 1 s⁻¹
same,kcat/KMapp,[2]; pH 6.4,35000 ± 1000 M⁻¹ s⁻¹
same,kcat/KMapp relative to the wild-type,[2]; pH 6.4,0.165 ± 0.005
same,KMapp,[3],813 ± 132 µM
same,k cat,[3],17 ± 1 and 17 ± 1 s^−1
same,k cat /K M ^app relative to the wild-type,[3],0.270 ± 0.005
same,k cat/K M ^app,[3],0.057 ± 0.001 and 0.057 ± 0.001 μM^−1 s^−1
same,kcat,[3],23 ± 3 s⁻¹
same,kcat/KMapp,[3],29000 ± 6000 M⁻¹ s⁻¹
same,kcat/KMapp relative to the wild-type,[3],0.14 ± 0.03
same,KMapp,[4],31 ± 6 µM
same,k cat,[4],3.95 ± 0.04 and 3.95 ± 0.04 s^−1
same,k cat /K M ^app relative to the wild-type,[4],1.00 ± 0.05
same,k cat/K M ^app,[4],0.21 ± 0.01 and 0.21 ± 0.01 μM^−1 s^−1
same,kcat,[4],6.0 ± 0.4 s⁻¹
same,kcat/KMapp,[4],210000 ± 40000 M⁻¹ s⁻¹
same,kcat/KMapp relative to the wild-type,[4],1.00 ± 0.19
same,KMapp,[5]; pH 6.4,282 ± 9 µM
same,k cat,[5]; pH 6.4,33 ± 12 and 33 ± 12 s^−1
same,k cat /K M ^app relative to the wild-type,[5]; pH 6.4,0.10 ± 0.05
same,k cat/K M ^app,[5]; pH 6.4,0.02 ± 0.01 and 0.02 ± 0.01 μM^−1 s^−1
same,kcat,[5]; pH 6.4,61 ± 1 s⁻¹
same,kcat/KMapp,[5]; pH 6.4,220000 ± 10000 M⁻¹ s⁻¹
same,kcat/KMapp relative to the wild-type,[5]; pH 6.4,1.04 ± 0.05
same,factor by which the magnitude of positive epistasis diminished in MES buffer,[6],7.4
same,KMapp,[6]; pH 6.4,183 ± 21 µM
same,k cat,[6]; pH 6.4,18 ± 1 and 18 ± 1 s^−1
same,k cat /K M ^app relative to the wild-type,[6]; pH 6.4,0.95 ± 0.05
same,k cat/K M ^app,[6]; pH 6.4,0.20 ± 0.01 and 0.20 ± 0.01 μM^−1 s^−1
same,kcat,[6]; pH 6.4,54 ± 2 s⁻¹
same,kcat/KMapp,[6]; pH 6.4,300000 ± 40000 M⁻¹ s⁻¹
same,kcat/KMapp relative to the wild-type,[6]; pH 6.4,1.42 ± 0.05
"O=C(Cc1cccs1)N[C@@H]1C(=O)N2C(C(=O)O)=C(/C=C/c3ccc([N+](=O)[O-])cc3[N+](=O)[O-])CS[C@H]12 [Nitrocefin, nitrocefin]",K M ^app,[1],18 ± 1 µM
same,k cat,[1],39 ± 10 s⁻¹
same,k cat /K M ^app relative to the wild-type,[1],4.2 ± 0.2
same,k cat/K M ^app,[1],2.1 ± 0.1 µM⁻¹ s⁻¹
same,fold decrease in k cat/K M ^app compared to the wild-type,[2],approximately 30 fold
same,K M ^app,[2]; pH 6.4,358 ± 4 µM
same,k cat,[2]; pH 6.4,5 ± 1 s⁻¹
same,k cat /K M ^app relative to the wild-type,[2]; pH 6.4,0.03 ± 0.01
same,k cat/K M ^app,[2]; pH 6.4,0.014 ± 0.003 µM⁻¹ s⁻¹
same,k cat,[3],21 ± 7 and 21 ± 7 s^−1
same,k cat /K M ^app relative to the wild-type,[3],0.08 ± 0.04
same,kcat,[3],13 ± 4 s⁻¹ and 13 ± 1 s⁻¹
same,K M ^app,[4],240 ± 40 µM
same,k cat,[4],79 ± 5 s⁻¹
same,k cat /K M ^app relative to the wild-type,[4],0.68 ± 0.04
same,k cat/K M ^app,[4],0.34 ± 0.02 µM⁻¹ s⁻¹
same,K M ^app,[5]; pH 6.4,210 ± 30 µM
same,k cat,[5]; pH 6.4,18 ± 2 s⁻¹
same,k cat /K M ^app relative to the wild-type,[5]; pH 6.4,0.16 ± 0.04
same,k cat/K M ^app,[5]; pH 6.4,0.08 ± 0.02 µM⁻¹ s⁻¹
same,K M ^app,[6]; pH 6.4,115 ± 1 µM
same,k cat,[6]; pH 6.4,41 ± 1 s⁻¹
same,k cat /K M ^app relative to the wild-type,[6]; pH 6.4,0.71 ± 0.01
same,k cat/K M ^app,[6]; pH 6.4,0.357 ± 0.005 µM⁻¹ s⁻¹
"O=C(O)[C@H]1/C(=C/CO)O[C@@H]2CC(=O)N21 [Clavulanic acid, clavulanic acid]",incubation time after which the enzyme is fully inhibited,[7],2 h
same,state of the enzyme after 24 h of incubation,[7],stays fully inhibited
same,activity,"[7]; read-out: recovery of activity, of the control activity",63%
same,course of residual activity during incubation,[8],"initially a slight drop in activity, followed by a swift recovery"
